This note sets out measurements from US20050124562A1, “Bis-quinazoline compounds for the treatment of bacterial infections” (priority 2003, published 2005).

Molecules are shown by their SMILES. Values after ≈ are worked out from the molar mass of the structure shown.

The test system of one test is S. aureus, E. faecalis, S. pyogenes and S. pneumoniae. Nature of the test: Broth microdilution MIC (NCCLS), gram-positive strains. Format: cell-based.
Details: not given
On the procedure: Representative bis-quinazolines were tested for antibacterial activity using the […] microdilution method to determine their minimum inhibitory concentrations (MICs). All compounds were tested using standard methods in accordance with NCCLS guidelines (National Committee for Clinical Laboratory Standards. 2003. Methods for dilution antimicrobial susceptibility testing for bacteria that grow aerobically. Approved Standard M-7 A-6, NCCLS, Wayne, Pa.). The bacterial strains used in the susceptibility tests were obtained from the American Type Culture Collection (ATCC) and included resistant phenotypes such as oxacillin-resistant S. aureus (ORSA) and vancomycin-resistant enterococci (VRE). The minimum bactericidal concentrations (MBCs) were determined for selected organisms. The effect of protein binding on the antibacterial activity of representative bis-quinazolines were determined by conducting MIC tests in the presence of human serum.
A general note: In broth dilution the organism is exposed to a series of concentrations in liquid medium.
Molecule `COc1ccc2nc(Nc3nc(O)c4cccc(OC)c4n3)nc(C)c2c1` [Example 10, 8-Methoxy-2-(6-methoxy-4-methyl-quinazolin-2-ylamino)-quinazolin-4-ol] had a minimum inhibitory concentration (MIC) of 0.06 to 16 µg/mL (≈ 0.165 to 44 µM). In turn, `COc1cc(OC)c2nc(Nc3nc(O)c4cccc(OC)c4n3)nc(C)c2c1` [Example 11, 2-(6,8-Dimethoxy-4-methyl-quinazolin-2-ylamino)-8-methoxy-quinazolin-4-ol] showed a minimal inhibitory concentration (MIC) of 0.06 to 16 µg/mL (≈ 0.153 to 40.7 µM). As for `CCOc1cccc2nc(Nc3nc(C)c4cc(OC)c(OC)cc4n3)nc(O)c12` [Example 13, 2-(6,7-Dimethoxy-4-methyl-quinazolin-2-ylamino)-5-ethoxy-quinazolin-4-ol], the minimal inhibitory concentration (MIC) lay within 0.06 to 16 µg/mL (≈ 0.147 to 39.3 µM). `Cc1nc(Nc2nc(O)c3ccccc3n2)nc2cc3c(cc12)OCO3` [Example 15, 2-(8-Methyl-[1,3]dioxolo[4,5-g]quinazolin-6-ylamino)-quinazolin-4-ol] gave a minimal inhibitory concentration (MIC) of 0.06 to 16 µg/mL (≈ 0.173 to 46.1 µM). Same read-out and setting: with `Cc1nc(Nc2nc(O)c3ccccc3n2)nc2ccc(O)cc12` [Example 16, 2-(4-Hydroxy-quinazolin-2-ylamino)-4-methyl-quinazolin-6-ol] the figure was 0.06 to 16 µg/mL (≈ 0.188 to 50.1 µM); with `COc1ccc2nc(Nc3nc(O)c4cccc(C)c4n3)ncc2c1` [Example 20, 2-(6-Methoxy-quinazolin-2-ylamino)-8-methyl-quinazolin-4-ol], 0.06 to 16 µg/mL (≈ 0.18 to 48 µM). `COc1cccc2c(C)nc(Nc3nc(O)c4cc(C)cc(C)c4n3)nc12` [Example 48, 2-(8-Methoxy-4-methyl-quinazolin-2-ylamino)-6,8-dimethyl-quinazolin-4-ol] returned an MIC of 0.06 to 16 µg/mL (≈ 0.166 to 44.3 µM). Molecule `CCc1nc(Nc2nc(O)c3ccccc3n2)nc2ccc(OC)cc12` [Example 49, 2-(4-Ethyl-6-methoxy-quinazolin-2-ylamino)-quinazolin-4-ol] gave an MIC of 0.06 to 16 µg/mL (≈ 0.173 to 46.1 µM). Regarding `COc1cccc2c(C)nc(Nc3nc(O)c4cccc(C)c4n3)nc12` [Example 51, 2-(8-Methoxy-4-methyl-quinazolin-2-ylamino)-8-methyl-quinazolin-4-ol], the MIC lay in the range of 0.06 to 16 µg/mL (≈ 0.173 to 46.1 µM). On to `COc1cc2nc(Nc3nc(O)c4ccccc4n3)nc(C)c2cc1OC` [Example 52, 2-(6,7-Dimethoxy-4-methyl-quinazolin-2-ylamino)-quinazolin-4-ol], for which the minimum inhibitory concentration (MIC) lay in the range of 0.06 to 16 µg/mL (≈ 0.165 to 44 µM).

In turn, `COc1cccc2c(C)nc(Nc3nc(O)c4ccccc4n3)nc12` [Example 58, 2-(8-Methoxy-4-methyl-quinazolin-2-ylamino)-quinazolin-4-ol] yielded an MIC of 0.06 to 16 µg/mL (≈ 0.18 to 48 µM).

With `CCOc1cccc2c(C)nc(Nc3nc(O)c4ccccc4n3)nc12` [Example 59, 2-(8-Ethoxy-4-methyl-quinazolin-2-ylamino)-quinazolin-4-ol], the MIC lay in the range of 0.06 to 16 µg/mL (≈ 0.173 to 46.1 µM). In the case of `COc1ccc2nc(Nc3nc(O)c4cc(O)ccc4n3)nc(C)c2c1` [Example 60, 2-(6-Methoxy-4-methyl-quinazolin-2-ylamino)-quinazoline-4,6-diol], the minimal inhibitory concentration (MIC) lay within 0.06 to 16 µg/mL (≈ 0.172 to 45.8 µM).

In the case of `COc1ccc2nc(Nc3nc(O)c4cc(OC)ccc4n3)nc(C)c2c1` [Example 61, 6-Methoxy-2-(6-methoxy-4-methyl-quinazolin-2-ylamino)-quinazolin-4-ol], the MIC was in the range of 0.06 to 16 µg/mL (≈ 0.165 to 44 µM). `COc1ccc2nc(Nc3nc(O)c4cc(OC)c(OC)cc4n3)nc(C)c2c1` [Example 62, 6,7-Dimethoxy-2-(6-methoxy-4-methyl-quinazolin-2-ylamino)-quinazolin-4-ol] yielded a minimum inhibitory concentration (MIC) of 0.06 to 16 µg/mL (≈ 0.153 to 40.7 µM). `COc1ccc2nc(Nc3nc(O)c4cc(C)ccc4n3)nc(C)c2c1` [Example 63, 2-(6-Methoxy-4-methyl-quinazolin-2-ylamino)-6-methyl-quinazolin-4-ol] yielded a minimum inhibitory concentration (MIC) of 0.06 to 16 µg/mL (≈ 0.173 to 46.1 µM). `COc1ccc2nc(Nc3nc(O)c4cccc(C)c4n3)nc(C)c2c1` [Example 65, 2-(6-Methoxy-4-methyl-quinazolin-2-ylamino)-8-methyl-quinazolin-4-ol] yielded an MIC of 0.06 to 16 µg/mL (≈ 0.173 to 46.1 µM).

Staying with this test, now noted: range against some strains of S. aureus, E. faecalis, S. pyogenes and S. pneumoniae; read-out: MIC.
Turning to `COc1ccc2nc(Nc3nc(O)c4cc(N)cc(C)c4n3)nc(C)c2c1.O=C(O)C(F)(F)F` [Example 22, 6-Amino-2-(6-methoxy-4-methyl-quinazolin-2-ylamino)-8-methyl-quinazolin-4-ol trifluoroacetate salt], the minimum inhibitory concentration (MIC) lay within 0.06 to 16 µg/mL. `COc1ccc([N+](=O)[O-])c2c(C)nc(Nc3nc(O)c4ccccc4n3)nc12.O=C(O)C(F)(F)F` [Example 26, 2-(8-Methoxy-4-methyl-5-nitro-quinazolin-2-ylamino)-quinazolin-4-ol trifluoroacetate salt]: the MIC was in the range of 0.06 to 16 µg/mL. Turning to `COc1ccc(OC)c2c(C)nc(Nc3nc(O)c4ccccc4n3)nc12.O=C(O)C(F)(F)F` [Example 27, 2-(5,8-Dimethoxy-4-methyl-quinazolin-2-ylamino)-quinazolin-4-ol trifluoroacetate salt], the minimum inhibitory concentration (MIC) lay within 0.06 to 16 µg/mL. Take `COc1ccc([N+](=O)[O-])c2c(C)nc(Nc3nc(O)c4cc(C)cc(C)c4n3)nc12.O=C(O)C(F)(F)F` [Example 30, 2-(8-Methoxy-4-methyl-5-nitro-quinazolin-2-ylamino)-6,8-dimethyl-quinazolin-4-ol, trifluoroacetate salt]: the MIC was 0.06 to 16 µg/mL. For the molecule `COc1cc2c(C)nc(Nc3nc(O)c4ccccc4n3)nc2cc1F.O=C(O)C(F)(F)F` [Example 32, 2-(7-Fluoro-6-methoxy-4-methyl-quinazolin-2-ylamino)-quinazolin-4-ol trifluoroacetate salt], the MIC was in the range of 0.06 to 16 µg/mL.

As for `CSc1ccc2nc(Nc3nc(O)c4ccccc4n3)nc(C)c2c1.O=C(O)C(F)(F)F` [Example 35, 2-(4-Methyl-6-methylsulfanyl-quinazolin-2-ylamino)-quinazolin-4-ol trifluoroacetate salt], the minimum inhibitory concentration (MIC) is 0.06 to 16 µg/mL. Regarding `COc1ccc2nc(Nc3nc(O)c4c(OC)cccc4n3)nc(C)c2c1.O=C(O)C(F)(F)F` [Example 37, 5-Methoxy-2-(6-methoxy-4-methyl-quinazolin-2-ylamino)-quinazolin-4-ol trifluoroacetate salt], the minimum inhibitory concentration (MIC) lay in the range of 0.06 to 16 µg/mL. Regarding `COc1cc2nc(Nc3nc(O)c4cc(C)cc(C)c4n3)nc(C)c2cc1OC.O=C(O)C(F)(F)F` [Example 41, 2-(6,7-Dimethoxy-4-methyl-quinazolin-2-ylamino)-6,8-dimethyl-quinazolin-4-ol trifluoroacetate salt], the MIC is 0.06 to 16 µg/mL. Regarding `COc1ccc(OC)c2c(C)nc(Nc3nc(O)c4cc(C)cc(C)c4n3)nc12.O=C(O)C(F)(F)F` [Example 43, 2-(5,8-Dimethoxy-4-methyl-quinazolin-2-ylamino)-6,8-dimethyl-quinazolin-4-ol trifluoroacetate salt], the minimum inhibitory concentration (MIC) was 0.06 to 16 µg/mL. `CC(=O)O.COc1cc2c(C)nc(Nc3nc(O)c4cc(C)cc(C)c4n3)nc2cc1F` [Example 44, 2-(7-Fluoro-6-methoxy-4-methyl-quinazolin-2-ylamino)-6,8-dimethyl-quinazolin-4-ol acetate salt]: the minimal inhibitory concentration (MIC) was in the range of 0.06 to 16 µg/mL. For `COc1ccc2nc(Nc3nc(O)c4ccccc4n3)nc(CF)c2c1.O=C(O)C(F)(F)F` [Example 45, 2-(4-Fluoromethyl-6-methoxy-quinazolin-2-ylamino)-quinazolin-4-ol trifluoroacetate salt], the MIC lay within 0.06 to 16 µg/mL.

As for `COc1cc(OC)c2nc(Nc3nc(O)c4cccc(C)c4n3)nc(C)c2c1.O=C(O)C(F)(F)F` [Example 46, 2-(6,8-Dimethoxy-4-methyl-quinazolin-2-ylamino)-8-methyl-quinazolin-4-ol trifluoroacetate salt], the MIC fell in the range of 0.06 to 16 µg/mL. Turning to `COc1ccc2nc(Nc3nc(O)c4cc(N)ccc4n3)nc(C)c2c1.O=C(O)C(F)(F)F` [Example 47, 6-Amino-2-(6-methoxy-4-methyl-quinazolin-2-ylamino)-quinazolin-4-ol trifluoroacetate salt], the minimum inhibitory concentration (MIC) is 0.06 to 16 µg/mL. On to `COc1cc(OC)c2nc(Nc3nc(O)c4cc([N+](=O)[O-])cc(C)c4n3)nc(C)c2c1.O=C(O)C(F)(F)F` [Example 67, 2-(6,8-Dimethoxy-4-methyl-quinazolin-2-ylamino)-8-methyl-6-nitro-quinazolin-4-ol trifluoroacetate salt], for which the MIC lay in the range of 0.06 to 16 µg/mL.

`COc1cccc2c(C)nc(Nc3nc(O)c4cc([N+](=O)[O-])cc(C)c4n3)nc12.O=C(O)C(F)(F)F` [Example 68, 2-(8-Methoxy-4-methyl-quinazolin-2-ylamino)-8-methyl-6-nitro-quinazolin-4-ol trifluoroacetate salt]: the minimal inhibitory concentration (MIC) was in the range of 0.06 to 16 µg/mL.

`COCCOc1ccc2nc(Nc3nc(O)c4cc([N+](=O)[O-])cc(C)c4n3)nc(C)c2c1.O=C(O)C(F)(F)F` [Example 69, 2-[6-(2-Methoxy-ethoxy)-4-methyl-quinazolin-2-ylamino]-8-methyl-6-nitro-quinazolin-4-ol trifluoroacetate salt]: the minimal inhibitory concentration (MIC) is 0.06 to 16 µg/mL. As to `COCCOc1ccc2nc(Nc3nc(O)c4cc(N)cc(C)c4n3)nc(C)c2c1.O=C(O)C(F)(F)F` [Example 70, 6-Amino-2-[6-(2-methoxy-ethoxy)-4-methyl-quinazolin-2-ylamino]-8-methyl-quinazolin-4-ol trifluoroacetate salt], the minimal inhibitory concentration (MIC) is 0.06 to 16 µg/mL.

Consider `COc1ccc2nc(Nc3nc(O)c4cccc(O)c4n3)nc(C)c2c1.O=C(O)C(F)(F)F` [Example 71, 2-(6-Methoxy-4-methyl-quinazolin-2-ylamino)-quinazoline-4,8-diol trifluoroacetate salt], for which the MIC was 0.06 to 16 µg/mL.

As to `COc1cccc2c(C)nc(Nc3nc(O)c4cccc(O)c4n3)nc12.O=C(O)C(F)(F)F` [Example 72, 2-(8-Methoxy-4-methyl-quinazolin-2-ylamino)-quinazoline-4,8-diol trifluoroacetate salt], the MIC fell in the range of 0.06 to 16 µg/mL. With `COc1ccc2c(C)nc(Nc3nc(O)c4cc(C)cc(C)c4n3)nc2c1OC.O=C(O)C(F)(F)F` [Example 73, 2-(7,8-Dimethoxy-4-methyl-quinazolin-2-ylamino)-6,8-dimethyl-quinazolin-4-ol trifluoroacetate salt], the MIC was 0.06 to 16 µg/mL.

Broadly, the MIC is the least concentration at which growth counts as inhibited.
